pEC50: −log10 of the molar value.
Molecular target: Serine/threonine-protein kinase PLK1 (Homo sapiens, UniProt P53350)
Test: redox cycling hydrogen peroxide generation, dose response, artefact control for Plk1 PBD inhibitor project, biochemical, 1 mM DTT (AID 936)

Chain of Serine/threonine-protein kinase PLK1 (P53350 whole entry): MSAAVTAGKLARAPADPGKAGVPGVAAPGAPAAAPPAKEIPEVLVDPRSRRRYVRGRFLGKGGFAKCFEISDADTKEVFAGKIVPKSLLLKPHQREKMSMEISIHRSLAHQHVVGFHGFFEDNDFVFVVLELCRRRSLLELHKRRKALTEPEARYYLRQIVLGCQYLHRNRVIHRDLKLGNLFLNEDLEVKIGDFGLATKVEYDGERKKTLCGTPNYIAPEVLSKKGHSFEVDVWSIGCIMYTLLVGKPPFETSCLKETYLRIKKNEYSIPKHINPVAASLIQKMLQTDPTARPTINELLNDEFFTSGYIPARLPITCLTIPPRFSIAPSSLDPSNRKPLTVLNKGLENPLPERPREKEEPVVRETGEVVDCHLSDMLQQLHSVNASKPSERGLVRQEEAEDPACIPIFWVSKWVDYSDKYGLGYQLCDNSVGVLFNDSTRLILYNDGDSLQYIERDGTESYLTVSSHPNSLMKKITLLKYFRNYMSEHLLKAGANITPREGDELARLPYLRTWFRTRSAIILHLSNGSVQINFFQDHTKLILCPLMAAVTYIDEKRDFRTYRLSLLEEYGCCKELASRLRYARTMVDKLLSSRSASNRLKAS

Row | SMILES | pEC50
1 | OCC(CO)(CO)N=Cc1cc(Br)ccc1O [(6E)-4-bromanyl-6-[[[2-(hydroxymethyl)-1,3-bis(oxidanyl)propan-2-yl]amino]methylidene]cyclohexa-2,4-dien-1-one] | < 4.30
2 | CC1CN(C2CC(C)(C)NC(C)(C)C2)CCC1=O (stereo not drawn) [3-methyl-1-(2,2,6,6-tetramethyl-4-piperidinyl)-4-piperidinone] | < 4.30
3 | O=C1C(=O)c2ccccc2-c2ccccc21 | < 4.30
4 | CCC(=O)Nc1ccc(-c2nnc(SCC(=O)Nc3nccs3)n2C)cc1 [MLS000076456] | < 4.30
5 | Cc1ccc(OCC(=O)Nc2ccc(N3CCOCC3)cc2)cc1 [2-(4-methylphenoxy)-N-(4-morpholin-4-ylphenyl)acetamide] | < 4.30
6 | CC(=O)N1CCc2cc(Br)cc(S(=O)(=O)NCc3ccccn3)c21 [1-acetyl-5-bromo-N-(2-pyridinylmethyl)-2,3-dihydroindole-7-sulfonamide] | < 4.30
7 | Nc1ccc2c(c1)C(=O)C(=O)c1ccccc1-2 [2-Amino-phenanthrene-9,10-dione] | < 4.30
8 | CCn1c(SCC(N)=O)nnc1-c1ccc(S(=O)(=O)N2CCN(C)CC2)cc1 [2-[[4-ethyl-5-[4-(4-methylpiperazin-1-yl)sulfonylphenyl]-1,2,4-triazol-3-yl]sulfanyl]acetamide] | < 4.30
9 | O=C1CN(c2ccc(Br)cc2)C(=O)N1CC(=O)N1CCCc2ccccc21 [1-(4-bromophenyl)-3-[2-(3,4-dihydro-1(2H)-quinolinyl)-2-oxoethyl]-2,4-imidazolidinedione] | < 4.30
10 | Cc1cccc(-n2c(CCn3nc(C)c([N+](=O)[O-])c3C)n[nH]c2=S)c1 [3-(2-{4-nitro-3,5-dimethyl-1H-pyrazol-1-yl}ethyl)-4-(3-methylphenyl)-5-sulfanyl-4H-1,2,4-triazole] | < 4.30
11 | Nc1cc(-c2ccc(Br)cc2)nn1S(=O)(=O)c1cccc2nsnc12 [2-(2,1,3-benzothiadiazol-4-ylsulfonyl)-5-(4-bromophenyl)-3-pyrazolamine] | < 4.30
12 | CC1Cn2c(nnc2-c2cc3ccccc3cc2O)S1 (stereo not drawn) [(3E)-3-(6-methyl-5,6-dihydro-2H-[1,3]thiazolo[2,3-c][1,2,4]triazol-3-ylidene)naphthalen-2-one] | < 4.30
13 | COc1ccc2c3c(cccc13)NN=C2C [6-Methoxy-3-methyl-1H-benzo[de]cinnoline] | < 4.30
14 | Cc1ccc2c(c1)CC1(CN2C)C(=O)NC(=O)N(c2ccccc2C)C1=O (stereo not drawn) [1',6'-dimethyl-1-(2-methylphenyl)spiro[1,3-diazinane-5,3'-2,4-dihydroquinoline]-2,4,6-trione] | < 4.30
15 | NC(=O)Cn1c(S(=O)(=O)Cc2ccccc2)nc2ccccc21 [2-(2-benzylsulfonylbenzimidazol-1-yl)acetamide] | < 4.30
16 | CNC(=O)CC(C(=O)O)c1ccc(OCC(C)C)cc1 (stereo not drawn) [2-(4-Isobutoxy-phenyl)-N-methyl-succinamic acid] | < 4.30
17 | NC(=O)C1CCN(C2=C(Cl)C(=O)c3ccccc3C2=O)CC1 [SMR000180199] | < 4.30
18 | O=C1CCC(C(=O)O)(c2ccccc2)C1 (stereo not drawn) [3-Oxo-1-phenyl-cyclopentanecarboxylic acid] | < 4.30
19 | O=C(O)C1CCCCC1C(=O)Nc1ccc2c(c1)OCCO2 (stereo not drawn) [2-(2,3-dihydro-1,4-benzodioxin-6-ylcarbamoyl)cyclohexane-1-carboxylic acid] | < 4.30
20 | O=C(NC(NC(=S)Nc1ccc(Cl)cc1Cl)C(Cl)(Cl)Cl)c1cccc([N+](=O)[O-])c1 (stereo not drawn) [3-nitro-N-[2,2,2-trichloro-1-({[(2,4-dichlorophenyl)amino]carbonothioyl}amino)ethyl]benzamide] | 4.55

Row | SMILES | pEC50
21 | CC(C)=CC(=O)NCCc1ccccc1 [MLS000089152] | < 4.30
22 | Cc1ccc(CNC(=O)c2cc3c(=O)n(C)c4ccccc4c3n2C)cc1 [1,5-dimethyl-N-[(4-methylphenyl)methyl]-4-oxidanylidene-pyrrolo[3,2-c]quinoline-2-carboxamide] | < 4.30
23 | O=C1Nc2ccc([N+](=O)[O-])cc2C1(O)N1CCCCC1 (stereo not drawn) [3-hydroxy-5-nitro-3-(1-piperidinyl)-1,3-dihydro-2H-indol-2-one] | < 4.30
24 | Cc1ccc(NC2=CC(=NS(=O)(=O)c3cccs3)c3ccccc3C2=O)c(C)c1 | < 4.30
25 | CC(C)Nc1nnc(SCC(=O)c2c(N)n(Cc3ccccc3)c(=O)n(C)c2=O)s1 [6-amino-1-benzyl-3-methyl-5-[2-[[5-(propan-2-ylamino)-1,3,4-thiadiazol-2-yl]sulfanyl]acetyl]pyrimidine-2,4-dione] | < 4.30
26 | COc1ccc(N(C)C2=NS(=O)(=O)c3ccccc32)cc1 [(1,1-Dioxo-1H-1lambda*6*-benzo[d]isothiazol-3-yl)-(4-methoxy-phenyl)-methyl-amine] | < 4.30
27 | Cc1cccc2[nH]c3c(N4CCN(C(=O)c5ccco5)CC4)ncnc3c12 [SMR000148910] | < 4.30
28 | COc1cc(S(=O)(=O)N2CCCCCC2)ccc1-n1cnnn1 [1-(3-Methoxy-4-tetrazol-1-yl-benzenesulfonyl)-azepane] | < 4.30
29 | Fc1ccc(Cn2nnnc2CN2CCN(C3CCCC3)CC2)cc1 [1-Cyclopentyl-4-[1-(4-fluoro-benzyl)-1H-tetrazol-5-ylmethyl]-piperazine] | < 4.30
30 | CCn1ncc(CN2CCN(C(=O)Nc3ccccc3C(=O)OC)CC2)c1C [2-[[4-[(1-ethyl-5-methyl-pyrazol-4-yl)methyl]piperazine-1-carbonyl]amino]benzoic acid methyl ester] | < 4.30
31 | CCC(=O)Nc1ccccc1C(=O)NC1CCCCC1 [MLS000538265] | < 4.30
32 | Cc1ccccc1Oc1ncnc2oc(-c3ccccc3)cc12 [4-(2-methylphenoxy)-6-phenyl-furo[2,3-d]pyrimidine] | < 4.30
33 | O=C(Cc1ccc(Cl)cc1)NCCN1CCCC1 [2-(4-Chloro-phenyl)-N-(2-pyrrolidin-1-yl-ethyl)-acetamide] | < 4.30
34 | Cn1c(-c2cc3ccc(OC(=O)C(C)(C)C)cc3oc2=O)nc2ccccc21 [2,2-Dimethyl-propionic acid 3-(1-methyl-1H-benzoimidazol-2-yl)-2-oxo-2H-chromen-7-yl ester] | < 4.30
35 | CC(=O)N(N=C1Sc2ccccc2C1=O)c1cccc(C)c1 [N-(3-methylphenyl)-N-[(3-oxidanylidene-1-benzothiophen-2-ylidene)amino]ethanamide] | < 4.30
36 | CC1(C)CC(=O)C=C(NCc2ccncc2)C1 [5,5-dimethyl-3-(4-pyridylmethylamino)cyclohex-2-en-1-one] | < 4.30
37 | CCOc1ccccc1N1CCN(C2=C(NS(=O)(=O)c3cccs3)C(=O)c3ccccc3C2=O)CC1 [MLS000551587] | < 4.30
38 | CCC(C)c1ccc(NC(=O)C2CC2)cc1 (stereo not drawn) [MLS000110184] | < 4.30
39 | COc1ccc2c(c1OC)C(=O)OC2CC(=O)O (stereo not drawn) [(4,5-dimethoxy-3-oxo-1,3-dihydro-2-benzofuran-1-yl)acetic acid] | < 4.30
40 | CCC(Sc1nc2nnc(C)c-2c(N)n1-c1cccc(Cl)c1)C(=O)NCCOC (stereo not drawn) [2-[4-amino-5-(3-chlorophenyl)-3-methylpyrazolo[3,4-d]pyrimidin-6-yl]sulfanyl-N-(2-methoxyethyl)butanamide] | < 4.30

Row | SMILES | pEC50
41 | COc1ccc(Nc2oc(-c3ccccc3Cl)nc2C#N)cc1 [2-(2-chlorophenyl)-5-(4-methoxyanilino)-1,3-oxazole-4-carbonitrile] | < 4.30
42 | C/C(=C\C(=O)Nc1cc(C)on1)c1ccccc1 [(E)-N-(5-methyl-1,2-oxazol-3-yl)-3-phenyl-but-2-enamide] | < 4.30
43 | O=C(CN1C(=O)COc2ccccc21)NCc1ccc(C(=O)O)cc1 [4-[[2-(3-oxidanylidene-1,4-benzoxazin-4-yl)ethanoylamino]methyl]benzoic acid] | < 4.30
44 | O=C1CCN2C=Nc3cccc4ccc1c2c34 [7,8-dihydro-9H-pyrido[1,2,3-cd]perimidin-9-one] | < 4.30
45 | O=c1[nH]cc(COCc2ccccc2)c(=O)[nH]1 | < 4.30
46 | CCn1ccc(C(=O)Nc2ccc(N(C)C(C)=O)cc2)n1 [MLS000043435] | < 4.30
47 | CCC(=O)N1CCN(c2ccc(NC(=O)c3ccc4c(c3)OCO4)cc2)CC1 [Benzo[1,3]dioxole-5-carboxylic acid [4-(4-propionyl-piperazin-1-yl)-phenyl]-amide] | < 4.30
48 | CCOCCCNC(=O)CCCOc1ccccc1 [MLS000088375] | < 4.30
49 | Cn1c(=O)c(NCCO)c2c3c(cccc31)C(=O)c1ccccc1-2 [1-(2-Hydroxy-ethylamino)-3-methyl-3H-naphtho[1,2,3-de]quinoline-2,7-dione] | < 4.30
50 | CC(=O)N(N=C1Sc2ccccc2C1=O)c1ccccc1C [N-(2-methylphenyl)-N-[(3-oxo-1-benzothiophen-2-ylidene)amino]acetamide] | < 4.30
51 | C=CCn1c2ccccc2c2nnc(SCc3ccc4nonc4c3)nc21 [5-[(5-prop-2-enyl-[1,2,4]triazino[5,6-b]indol-3-yl)sulfanylmethyl]-2,1,3-benzoxadiazole] | < 4.30
52 | CCOC(=O)c1cc2n(c1N)-c1ccccc1C2=O [1-amino-4-keto-pyrrol[1,2-a]indole-2-carboxylic acid ethyl ester] | < 4.30
53 | CN(C)c1ccc(C(=O)Nc2nc3c(s2)CCCC3)cc1 [4-(dimethylamino)-N-(4,5,6,7-tetrahydro-1,3-benzothiazol-2-yl)benzamide] | < 4.30
54 | CCc1noc(C)c1C(=O)N1CCOCC1 [(3-ethyl-5-methyl-1,2-oxazol-4-yl)-morpholin-4-yl-methanone] | < 4.30
55 | CCNC(=O)NC(=O)C(C)OC(=O)c1cccnc1SC (stereo not drawn) [2-(methylthio)-3-pyridinecarboxylic acid [1-(ethylcarbamoylamino)-1-oxopropan-2-yl] ester] | < 4.30
56 | COc1cc(OC)cc(C(=O)NCCCN2CCOCC2)c1 [3,5-Dimethoxy-N-(3-morpholin-4-yl-propyl)-benzamide] | < 4.30
57 | O=C(Nc1cccn(Cc2c(Cl)cccc2Cl)c1=O)c1c(Cl)cccc1Cl [2,6-dichloro-N-[1-(2,6-dichlorobenzyl)-2-keto-3-pyridyl]benzamide] | < 4.30
58 | O=C(CC1C(=O)NCCN1C(=S)Nc1ccccc1)Nc1ccc2c(c1)OCCO2 (stereo not drawn) [2-[1-(anilinocarbonothioyl)-3-oxo-2-piperazinyl]-N-(2,3-dihydro-1,4-benzodioxin-6-yl)acetamide] | < 4.30

From BindingDB's records for doi:10.7270/Q2N58JS6 (University of Pittsburgh, 2007)
